Substitutions are numbered along the chain they refer to. “And” between values parts separate entries of the source, which are not always exact repeats. Identical values can stand only once. “Also recorded” adds a separate entry of the source. Like-named read-outs stand apart in the source and are kept apart here.
How the values were obtained:
WT LCAT [1] = target: T1, WT LCAT (Homo sapiens, UniProt P04180); assay: MUP hydrolysis (esterase) assay; format: biochemical; set-up: hydrolysis of 4-methylumbelliferyl palmitate (MUP) by full-length LCAT; made in house; host or cells: HEK293F (transient transfection, secreted)
T1 sequence (P04180 25-440): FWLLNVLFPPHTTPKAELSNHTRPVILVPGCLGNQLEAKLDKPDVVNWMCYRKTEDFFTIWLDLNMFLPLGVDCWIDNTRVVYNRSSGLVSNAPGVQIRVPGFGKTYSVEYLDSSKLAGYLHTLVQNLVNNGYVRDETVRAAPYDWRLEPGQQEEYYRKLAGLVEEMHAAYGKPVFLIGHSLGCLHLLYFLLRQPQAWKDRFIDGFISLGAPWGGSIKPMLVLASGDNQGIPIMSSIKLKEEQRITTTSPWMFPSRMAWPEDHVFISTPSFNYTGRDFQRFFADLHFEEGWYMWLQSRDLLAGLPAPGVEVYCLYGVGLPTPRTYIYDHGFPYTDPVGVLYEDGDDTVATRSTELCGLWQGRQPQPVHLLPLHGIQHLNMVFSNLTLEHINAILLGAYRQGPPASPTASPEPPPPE
Description: The lipase activity of LCAT was measured using MUP as a substrate. The assay was performed at room temperature in 0.1 M sodium phosphate buffer, pH 7.4 containing 0.01% Triton X-100. 4 μL of LCAT (6 nM final concentration) were dispensed into a 1536-well Greiner solid black plate. The same volume of assay buffer was dispensed into column 1 and 2 for a no-enzyme control. […] After 15 min incubation, 2 μL MUP (16 μM final concentration) was added to initiate the reaction. The hydrolysis of MUP was monitored using a ViewLux plate reader (excitation 380 nm/emission 450 nm) for 20 min. The fluorescence signal was normalized against no-activator and no-enzyme control after subtraction of background signal (t = 0 min). To plot percent activation, in each assay 100% was set at the rate of LCAT or LCAT variant without compound. The resulting data were fitted to a sigmoidal dose response curve.

WT LCAT [2] = target: T1, WT LCAT; assay: Differential scanning fluorimetry; format: binding; set-up: hydrolysis of 4-methylumbelliferyl palmitate (MUP) by full-length LCAT; made in house; host or cells: HEK293F (transient transfection, secreted); conditions: for Thermal stabilization (DSF): WT LCAT; for Thermal stabilization of WT LCAT (DSF): compound at 10 μM
Description: Tm values were determined using an Applied Biosystems QuantStudio 7 Flex qPCR machine with two replicates performed at least in triplicate. LCAT at 0.05 mg mL^−1 was diluted into reaction buffer containing 5X Sypro Orange in a final volume of 10 μL in 384-well PCR plates. DMSO or compound 1 was added so that all reactions contained 3% DMSO. The reactions were run from 25–95 °C with a ramp rate of 0.03 °C s^−1. Tm values were determined as the derivative using Protein Thermal Shift software. Significance was determined using a one-way analysis of variance followed by Tukey’s multiple comparisons post-test in GraphPad Prism.

LCAT R244H = target: T2, LCAT R244H (Homo sapiens, UniProt P04180, R268H); assay: MUP hydrolysis (esterase) assay; format: biochemical
T2 construct: hydrolysis of 4-methylumbelliferyl palmitate (MUP) by full-length LCAT; made in house; host or cells: HEK293F (transient transfection, secreted)
T2 sequence (P04180 25-440 R268H): T1 sequence (P04180 25-440) with R244H
Description: (§1) The lipase activity of LCAT was measured using MUP as a substrate. The assay was performed at room temperature in 0.1 M sodium phosphate buffer, pH 7.4 containing 0.01% Triton X-100. 4 μL of LCAT (6 nM final concentration) were dispensed into a 1536-well Greiner solid black plate. The same volume of assay buffer was dispensed into column 1 and 2 for a no-enzyme control. Then 23 nL DMSO or compounds titrated at 11-point 1:3 dilution series starting at 10 mM were transferred using a pintool. After 15 min incubation, 2 μL MUP (16 μM final concentration) was added to initiate the reaction. The hydrolysis of MUP was monitored using a ViewLux plate reader (excitation 380 nm/emission 450 nm) for 20 min. The fluorescence signal was normalized against no-activator and no-enzyme control after subtraction of background signal (t = 0 min). To plot percent activation, in each assay 100% was set at the rate of LCAT or LCAT variant without compound. The resulting data were fitted to a sigmoidal dose response curve.

LCAT R244A = target: T3, LCAT R244A (Homo sapiens, UniProt P04180, R268A); assay: MUP hydrolysis (esterase) assay; format: biochemical
T3 construct: hydrolysis of 4-methylumbelliferyl palmitate (MUP) by full-length LCAT; made in house; host or cells: HEK293F (transient transfection, secreted)
T3 sequence (P04180 25-440 R268A): T1 sequence (P04180 25-440) with R244A
Description: as §1

[3] = WT, compound titrated from 0.04 to 9.5 μM, read-out: MUP assay EC50
[4] = compound titrated from 0.04 to 9.5 μM
[5] = compound titrated from 0.04 to 9.5 μM, read-out: MUP assay EC50
[6] = read-out: EC50, MUP esterase assay
[7] = WT, compound titrated from 0.04 to 9.5 μM

SMILES | EC50 (WT LCAT [1]; [3]) [nM] | EC50 (WT LCAT [1]; full-length WT LCAT, read-out: EC50, MUP hydrolysis) [nM] | Thermal stabilization (DSF) (WT LCAT [2]) | Fold activation, MUP esterase assay (LCAT R244H; [4]) | EC50 (LCAT R244H; [5]) [nM] | EC50 (LCAT R244H; [6]) [nM] | Fold activation, MUP esterase assay (LCAT R244A; [4]) | EC50 (LCAT R244A; [5]) [nM] | EC50 (LCAT R244A; [6]) [nM] | Fold activation, MUP esterase assay (WT LCAT [1]; [7]) | MUP assay EC50 (WT LCAT [1]; [7]) | MUP assay EC50 (LCAT R244H; [4]) | MUP assay EC50 (LCAT R244A; [4]) | Thermal stabilization of WT LCAT (DSF) (WT LCAT [2])
O=C1CC(O)(C(F)(F)F)c2c(ncn2C2CCN(c3cnc(C(F)(F)F)cn3)CC2)N1 (stereo not drawn) [compound 3, 7-Hydroxy-7-(trifluoromethyl)−1-(1-(5-(trifluoromethyl)pyrazin-2-yl)piperidin-4-yl)−6,7-dihydro-1H-imidazo[4,5-b]pyridin-5(4H)-one] | 320 ± 50 | – | stabilize | 1.8 ± 0.1 fold | 470 ± 50 | – | 1.9 ± 0.2 fold | 400 ± 30 | – | – | – | – | – | –
O=C1CC(O)(C(F)(F)F)c2c(ncn2C2CCNCC2)N1 (stereo not drawn) [compound 6, 7-Hydroxy-1-(piperidin-4-yl)−7-(trifluoromethyl)−6,7-dihydro-1H-imidazo[4,5-b]pyridin-5(4H)-one] | – | – | – | no effect | – | – | no effect | – | – | no activating effect | no effect | no effect | no effect | do not stabilize; also recorded: could not thermal stabilize
O=c1cc(C(F)(F)F)c2c(ncn2C2CCN(c3cnc(C(F)(F)F)cn3)CC2)[nH]1 [compound 8, 7-(trifluoromethyl)−1-(1-(5-(trifluoromethyl)pyrazin-2-yl)piperidin-4-yl)−1H-imidazo[4,5-b]pyridin-5(4H)-one] | 4600 ± 60 | – | – | 2.8 ± 0.6 fold | > 10000 | – | 3.2 ± 0.8 fold | > 10000 | – | 3.7 fold and 3.7 ± 0.9 fold | – | – | – | do not stabilize; also recorded: could not thermal stabilize
O=C1CC(O)(C(F)(F)F)c2c(C3CCN(c4cnc(C(F)(F)F)cn4)CC3)noc2N1 (stereo not drawn) [compound 9, 4-hydroxy-4-(trifluoromethyl)−3-(1-(5-(trifluoromethyl)pyrazin-2-yl)piperidin-4-yl)−4,5-dihydroisoxazolo[5,4-b]pyridin-6(7H)-one] | 7700 ± 2000 | – | – | 1.3 ± 0.06 fold | 7600 ± 1000 | – | 1.2 ± 0.1 fold | 6200 ± 800 | – | 1.6 fold and 1.6 ± 0.2 fold | – | – | – | do not stabilize; also recorded: could not thermal stabilize

Further lines, with some results ahead:

EC50 (WT LCAT [1]; [3]) [nM] | EC50 (WT LCAT [1]; full-length WT LCAT, read-out: EC50, MUP hydrolysis) [nM] | Thermal stabilization (DSF) (WT LCAT [2]) | Fold activation, MUP esterase assay (LCAT R244H; [4]) | EC50 (LCAT R244H; [5]) [nM] | EC50 (LCAT R244H; [6]) [nM] | Fold activation, MUP esterase assay (LCAT R244A; [4]) | EC50 (LCAT R244A; [5]) [nM] | EC50 (LCAT R244A; [6]) [nM] | Fold activation, MUP esterase assay (WT LCAT [1]; [7]) | MUP assay EC50 (WT LCAT [1]; [7]) | MUP assay EC50 (LCAT R244H; [4]) | MUP assay EC50 (LCAT R244A; [4]) | SMILES | Thermal stabilization of WT LCAT (DSF) (WT LCAT [2])
160 ± 10 | ~150 | stabilize | 1.6 ± 0.3 fold | 160 ± 30 | ~150 | 1.7 ± 0.4 fold | 130 ± 20 | ~150 | – | – | – | – | N#Cc1cnc(N2CCC(c3n[nH]c4c3C(O)(C(F)(F)F)CC(=O)N4)CC2)cc1C(F)(F)F (stereo not drawn) [compound 1, 6-(4-(4-Hydroxy-6-oxo-4-(trifluoromethyl)−4,5,6,7-tetrahydro-1H-pyrazolo[3,4-b]pyridin-3-yl)piperidin-1-yl)−4-(trifluoromethyl)nicotinonitrile] | –
280 ± 40 | – | stabilize | 1.8 ± 0.1 fold | 320 ± 30 | – | 1.9 ± 0.2 fold | 270 ± 40 | – | – | – | – | – | O=C1CC(O)(C(F)(F)F)c2c(C3CCN(c4cnc(C(F)(F)F)cn4)CC3)n[nH]c2N1 (stereo not drawn) [compound 2, 4-Hydroxy-4-(trifluoromethyl)−3-(1-(5-(trifluoromethyl)pyrazin-2-yl)piperidin-4-yl)−4,5-dihydro-1H-pyrazolo[3,4-b]pyridin-6(7H)-one] | –

From PMC6277198, “Molecular basis for activation of lecithin:cholesterol acyltransferase by a compound that increases HDL cholesterol” (eLife, 2018)
